Measurements: patent US6800638B2, “Tetrahydropyridine derivatives, their preparation and their use as cell proliferation inhibitors” (Hoffman-La Roche Inc., priority 2000, dated 2004)

Test system: HDAC
Experiment: HDAC inhibition assay with aminocoumarin derivative of omega-acetylated lysine as substrate
Assay type: biochemical
Conditions: compound concentration 10 nM; protocol of Hoffmann et al. 1999
Method: To determine the HDAC inhibitory properties of the compounds of the invention an assay was performed using an aminocoumarin derivative of an omega-acetylated lysine as substrate for the enzyme. This assay has been described in detail by Hoffmann, K., et al., Nucleic Acids Res. 27 (1999) 2057-2058. Using the protocol described therein, the inhibitory effect of representative compounds was determined at a concentration of 10 nM.

SMILES	Inhibitory effect at 10 nM in % [%]
O=C(CCCCCCCN1CCc2c([nH]c3ccccc23)C1)NO [Example 7, 8-(1,3,4,9-tetrahydro-β-carbolin-2-yl)-octanoic acid hydroxyamide]	26
COc1cc2c(cc1OC)C(c1ccccc1)N(CCCCCCCC(=O)NO)CC2 (stereo not shown) [Example 6, 8-(6,7-dimethoxy-1-phenyl-3,4-dihydro-1H-isoquinolin-2-yl)-octanoic acid hydroxyamide]	26
O=C(CCCCCCCN1CCc2ccccc2C1)NO [Example 1, 8-(3,4-Dihydro-1H-isoquinolin-2-yl)-octanoic acid hydroxyamide]	54
CCOc1cc2c(cc1OCC)CN(CCCCCCCC(=O)NO)CC2 [Example 5, 8-(6,7-Diethoxy-3,4-dihydro-1H-isoquinolin-2-yl)-octanoic acid hydroxyamide]	26
